Source: the supplement of paper PMC10307832

Key:
Test in all cases: relative viability (nuclei count vs DMSO), 5 days (fraction); higher = more cells survive
Carfilzomib + Phenformin = compound: CC(C)C[C@H](NC(=O)[C@H](CCc1ccccc1)NC(=O)CN1CCOCC1)C(=O)N[C@@H](Cc1ccccc1)C(=O)N[C@@H](CC(C)C)C(=O)[C@@]1(C)CO1 [Carfilzomib] + N=C(N)NC(=N)NCCc1ccccc1 [Phenformin] (partner 250 µM)
Procedure, shortened: (§1)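 Each reported value is a median over duplicate plates. It expresses relative viability: treated-well nuclei count divided by vehicle-well nuclei count. Lung cancer cell lines in 1536-well plates were dosed by pin tool a day after seeding, alone with one drug or with a fixed anchor-drug dose plus five library-drug doses (not always all listed) in √10 steps, and nuclei were counted after 5 days.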

Carfilzomib + AZD7762 = compound: CC(C)C[C@H](NC(=O)[C@H](CCc1ccccc1)NC(=O)CN1CCOCC1)C(=O)N[C@@H](Cc1ccccc1)C(=O)N[C@@H](CC(C)C)C(=O)[C@@]1(C)CO1 [Carfilzomib] + NC(=O)Nc1cc(-c2cccc(F)c2)sc1C(=O)N[C@H]1CCCNC1 [AZD7762] (partner 0.2 µM)
Procedure, shortened: as §1

Crizotinib + Olaparib = compound: C[C@@H](Oc1cc(-c2cnn(C3CCNCC3)c2)cnc1N)c1c(Cl)ccc(F)c1Cl [Crizotinib] + O=C(c1cc(Cc2n[nH]c(=O)c3ccccc23)ccc1F)N1CCN(C(=O)C2CC2)CC1 [Olaparib] (partner 8 µM)
Procedure, shortened: as §1

Crizotinib + Pictilisib = compound: C[C@@H](Oc1cc(-c2cnn(C3CCNCC3)c2)cnc1N)c1c(Cl)ccc(F)c1Cl [Crizotinib] + CS(=O)(=O)N1CCN(Cc2cc3nc(-c4cccc5[nH]ncc45)nc(N4CCOCC4)c3s2)CC1 [Pictilisib] (partner 1 µM)
Procedure, shortened: as §1

Cell Line	relative viability (Carfilzomib + Phenformin; first compound 0.001 µM)	relative viability (Carfilzomib + Phenformin; first compound 0.003162 µM)	relative viability (Carfilzomib + Phenformin; first compound 0.01 µM)	relative viability (Carfilzomib + Phenformin; first compound 0.03162 µM)	relative viability (Carfilzomib + Phenformin; first compound 0.1 µM)	relative viability (Carfilzomib + AZD7762; first compound 0.003162 µM)	relative viability (Carfilzomib + AZD7762; first compound 0.01 µM)	relative viability (Carfilzomib + AZD7762; first compound 0.03162 µM)	relative viability (Carfilzomib + AZD7762; first compound 0.1 µM)	relative viability (Crizotinib + Olaparib; first compound 0.01 µM)	relative viability (Crizotinib + Olaparib; first compound 0.03162 µM)	relative viability (Crizotinib + Olaparib; first compound 0.1 µM)	relative viability (Crizotinib + Olaparib; first compound 1 µM)	relative viability (Crizotinib + Pictilisib; first compound 0.01 µM)	relative viability (Crizotinib + Pictilisib; first compound 0.03162 µM)	relative viability (Crizotinib + Pictilisib; first compound 0.1 µM)	relative viability (Crizotinib + Pictilisib; first compound 0.3162 µM)	relative viability (Crizotinib + Pictilisib; first compound 1 µM)	relative viability (Carfilzomib + AZD7762; first compound 0.001 µM)	relative viability (Crizotinib + Olaparib; first compound 0.3162 µM)
NCI-H1792	0.188	0.357	0.262	0.234	0.0821	0.96	0.742	0.38	0.0881	0.505	0.458	0.378	0.37	0.266	0.286	0.284	0.274	0.285	–	–
NCI-H1915	0.367	0.403	0.359	0.255	0.0555	0.711	0.57	0.414	0.125	0.228	0.257	0.259	0.26	0.874	0.88	1.01	–	0.952	0.61	0.222
NCI-H1944	0.187	0.2	0.202	0.204	0.139	0.568	0.587	0.448	0.317	0.414	0.423	0.378	0.461	0.322	0.341	0.328	0.344	0.343	0.538	0.424
NCI-H1975	–	0.367	0.197	0.0933	0.0936	0.804	0.684	0.222	0.19	0.806	0.743	0.794	0.774	0.28	0.294	0.308	0.344	0.266	0.651	0.749
NCI-H1993	0.482	0.498	0.42	0.477	0.45	0.841	0.69	0.589	0.503	0.919	0.948	–	0.9	0.682	0.823	0.761	0.667	0.748	0.625	0.924
NCI-H2085	0.708	0.862	0.491	0.259	0.244	0.942	0.988	0.321	0.293	0.737	0.74	0.755	0.823	0.357	0.484	0.409	0.437	0.451	0.726	0.752
NCI-H2087	0.471	0.445	0.13	0.0358	0.0687	1.31	0.946	0.515	0.0622	0.614	0.59	0.595	0.716	0.693	0.909	0.953	0.42	0.943	1.21	0.397
NCI-H2126	0.521	0.621	0.532	0.441	0.276	1	1.01	1.01	0.697	0.81	0.936	0.952	0.907	0.456	0.5	0.481	0.429	0.48	0.875	0.897
NCI-H2170	0.423	0.457	0.427	0.411	0.232	0.963	1.02	0.734	0.238	0.558	0.625	0.642	0.62	0.316	0.315	0.286	0.277	0.292	0.846	0.558
NCI-H2347	0.274	–	0.341	0.163	0.141	0.814	0.642	0.229	0.289	0.584	0.57	0.568	0.578	0.624	0.69	0.551	0.731	1.05	0.696	0.554
NCI-H2405	–	0.432	0.395	0.298	0.129	0.783	0.932	0.689	0.262	0.794	0.837	0.906	0.901	0.457	0.526	0.419	0.37	0.356	0.717	0.751
NCI-H3122	0.375	0.446	0.366	0.278	0.0931	1.05	1	0.895	0.588	0.597	0.57	0.61	0.631	0.533	0.6	0.609	0.434	0.27	0.948	0.637
PC-3 [JPC-3]	0.487	0.461	0.464	0.432	0.261	0.762	0.993	0.512	0.248	1.09	1.22	1.13	1.12	0.687	0.804	0.722	0.705	0.709	0.882	–
PC-14	0.549	0.774	0.557	0.115	0.0595	0.368	0.392	0.158	0.0776	0.274	0.28	0.307	0.289	0.772	0.775	0.708	0.8	–	0.377	0.401
RERF-LC-KJ	0.44	0.421	0.419	0.354	0.236	1.11	1.24	0.927	0.309	0.843	0.887	0.928	0.802	0.502	0.628	0.476	0.561	0.621	0.827	0.919
